Patent publication US11932870B2, “Compositions and methods for immune cell modulation in adoptive immunotherapies” (Fate Therapeutics, Inc., priority 2016, dated 2024)

How the values were obtained:
[1] = system: CAR-T cells co-cultured with irradiated K562 tumor cells that express CD19; assay: In vitro serial killing/re-stimulation assay; type: cell-based, human; details: relative to vehicle; FIG. 3C
From the text: An informative clinical parameter that can in some contexts be indicative of likelihood of successful adoptive cell therapy in clinical trials is the ability and extent of expansion of the transferred cells in the patient post-treatment and/or persistence and continued function following initial expansion, e.g., in the context of continued exposure to antigen. The ability of engineered T cells to persist and continue expanding over multiple rounds of antigen stimulation can be indicative of such features and/or likelihood of in vivo function or clinical response. An in vitro serial killing/re-stimulation assay, where the T cells treated by each compound were evaluated for various functions, including expansion and ability to kill tumor cells expressing the target antigen in vitro over multiple rounds of exposure to and withdrawal from antigen, was used as a model system. Such assays were carried out on cells treated with or without compounds, to assess the impact of individual compounds on cell function after repeated encounter with antigen, and cell expansion or persistence in such contexts.
CD8 T cells were activated, transduced, and expanded in the presence of DMSO, TWS119, or DCC-2036. At the end of the expansion, the CAR-T cells were cryopreserved. The serial re-stimulation assay was performed by thawing the CAR-T cells and co-culturing with irradiated K562 tumor cells that express CD19, the antigen recognized by the CAR. Prior to starting each round of killing, cell numbers were adjusted so that CAR-T cell numbers were substantially the same from the cultures generated with DMSO, TWS119, and DCC-2036 treatment respectively. An equal number of irradiated CD19-expressing K562 target cells were added to the different CAR-T cultures.

[2] = system: CD8 T cells transduced with CAR Construct 1; assay: Tcm phenotype skewing of CAR-T cells (CD62L, CCR7, CD27 surface expression); type: cell-based, human; details: flow cytometry day 8
Protocol: (§1) Culturing cells in large-scale for phenotypic and exhaustion marker evaluation. Isolated CD8 T cells were activated in bulk on day 0 using anti-CD3/anti-CD28 beads in T cell media supplemented with IL-2. On day 1, cells were transduced with the CAR Construct and cell density was adjusted to 0.5×10^6/ml and 10^6 cells were seeded into 12-well plates in the presence of vehicle, TWS119, or DCC-2036. On day 4, cells were transferred into 6-well plates and 2 ml of T cell media was added to each well. On day 6 another 2 ml of media was added to each well. On day 8, CAR T cells were analyzed on a flow cytometer for surface expression of phenotypic markers (CD62L, CCR7, and CD27) and exhaustion markers (PD-1 and Tim-3).
To determine the effect of compound treatment on skewing towards a central memory phenotype, isolated CD8 T cells were activated in bulk on day 0 using anti-CD3/anti-CD28 beads in T cell media supplemented with IL-2. On day 1, cells were transduced with the CAR Construct 1 shown in FIG. 2 and cell density was adjusted to 0.5×10^6/ml and 10^6 cells were seeded into 12 well plates in the presence of vehicle (DMSO), TWS119 or DCC-2036 at the same concentrations. On day 4, cells were transferred into 6-well plates and 2 ml of media was added to each well. On day 6 another 2 ml of media was added to each well. On day 8, cells were analyzed on a flow cytometer for cell surface expression of CD27.
The expression of CD27 observed with vehicle treatment was defined as an MFI (mean fluorescence intensity) of 1 and the relative MFI of cells treated with compound was calculated.

CD8 CAR-T cells = assay: Exhaustion marker expression (PD-1, Tim-3) on CD8 CAR-T cells; type: cell-based, human
Protocol: as §1
To determine the effect of compound treatment of CAR-T cells on exhaustion marker expression, cells from three different donors were prepared and treated as described in the protocol above. PD-1 and Tim-3 expression was determined using flow cytometry. […] Tim-3 expression was reduced 2-fold with TWS119, and 3.7-fold with DCC-2036 treatment (FIG. 6A).

Nalm-6-luc tumor cells = assay: In vivo tumor clearance by compound-treated CD19 CAR-T cells; details: NSG mice with Nalm-6-luc; 2.0×10^5 cryopreserved compound-treated CAR-T cells per animal (1:1 CD4:CD8); imaging; FIGS. 7 and 8
Protocol: NSG mice were injected with Nalm-6-luc, a CD19+ human tumor line engineered to express firefly luciferase. CAR-T cells were generated from CD4+ and CD8+ T cells that were separately activated and expanded in vitro. The cells were transduced with the CAR-2 construct (FIG. 2) one day after activation and then replated into 24-well GREX plates with or without the compounds. Half the media was replaced every two days thereafter until harvest one week post-activation. Cells were cryopreserved and then thawed for use. NSG mice were infused with tumor cells followed […] by CAR-T transfer via retroorbital injection. Four days after IV. injection with Nalm-6-luc cells, mice were treated with 2.0×10^5 CAR-T cells per animal (1:1 CD4:CD8). The mice were imaged periodically to determine tumor burden.

Nc1cccc(-c2cc3c(Oc4cccc(O)c4)ncnc3[nH]2)c1 [TWS119]
cell number expansion of CAR-T cells in rounds 3 and 4 of the serial re-stimulation assay [1]: modest increase in expansion relative to vehicle
increase in the frequency of CAR-T cells expressing both CD62L and CCR7 ([2]; relative to vehicle (DMSO), FIG. 4A): 1.7 fold
increase in the expression of the differentiation marker CD27 (relative MFI) ([2]; relative to vehicle (MFI defined as 1), FIG. 4B): did not have an effect
expression of T cell exhaustion marker Tim-3 (CD8 CAR-T cells; CD8 T cells at one week post activation, relative to DMSO, FIG. 6A): reduced expression
expression of T cell exhaustion marker PD-1 (CD8 CAR-T cells; CD8 T cells at one week post activation, relative to DMSO, FIG. 6B): reduced expression
reduction of Tim-3 expression (CD8 CAR-T cells; relative to vehicle, three donors, FIG. 6A): 2 fold
decrease in PD-1 surface expression (CD8 CAR-T cells; relative to vehicle, three donors, FIG. 6B): 3.3 fold
tumor burden / tumor control (Nalm-6-luc tumor cells): minimal tumor control
